Source: patent US10123995B2, “Factor XIa inhibitors” (MERCK SHARP & DOHME CORP., priority 2015, dated 2018)

What was measured:
[1] = target: purified human Factor XIa (Homo sapiens (Human), UniProt P03951); experiment: Factor XIa Assay; assay type: biochemical; settings: Factor XIa inhibition; substrate Z-Gly-Pro-Arg-AFC, pH 7.4; read-out: hFXIa IC50
Experimental: The effectiveness of a compound of the present invention as an inhibitor of Coagulation Factor XIa can be determined using a relevant purified serine protease, and an appropriate synthetic substrate. The rate of hydrolysis of the chromogenic or fluorogenic substrate by the relevant serine protease was measured both in the absence and presence of compounds of the present invention. Assays were conducted at room temperature or at 37° C. […] A decrease in the rate of fluorescence change in the presence of inhibitor is indicative of enzyme inhibition. Such methods are known to one skilled in the art. […]
Factor XIa determinations were made in 50 mM HEPES buffer at pH 7.4 containing 150 mM NaCl, 5 mM CaCl2, and 0.1% PEG 8000 (polyethylene glycol; JT Baker or Fisher Scientific). Determinations were made using purified human Factor XIa at a final concentration of 40 pM (Sekisui Diagnostics) and the synthetic substrate, Z-Gly-Pro-Arg-AFC, TFA salt (Sigma #C0980) at a concentration of 100 μM.
Activity assays were performed by diluting a stock solution of substrate at least tenfold to a final concentration ≤0.1 Km into a solution containing enzyme or enzyme equilibrated with inhibitor. Times required to achieve equilibration between enzyme and inhibitor were determined in control experiments. Initial velocities of product formation in the absence (Vo) or presence of inhibitor (Vi) were measured. Assuming competitive inhibition, and that unity is negligible compared Km/[S], [I]/e, and [I]/e (where [S], [I], and e respectively represent the total concentrations, of substrate, inhibitor and enzyme), the equilibrium constant (Ki) for dissociation of the inhibitor from the enzyme can be obtained from the dependence of Vo/Vi on [I] shown in the following equation. Vo/Vi=1+[I]/Ki

[2] = target: purified Human plasma kallikrein (Homo sapiens (Human), UniProt P03952); experiment: Kallikrein Assay; assay type: biochemical; settings: table titled Kalikrein inhibition (column head prints hFXIa), substrate Acetyl-K-P-R-AFC, pH 7.4
Experimental: The effectiveness of a compound of the present invention as an inhibitor of Kallikrein can be determined using a relevant purified serine protease, and an appropriate synthetic substrate. The rate of hydrolysis of the chromogenic or fluorogenic substrate by the relevant serine protease was measured both in the absence and presence of compounds of the present invention. Assays were conducted at room temperature or at 37° C. […] A decrease in the rate of fluorescence change in the presence of inhibitor is indicative of enzyme inhibition. Such methods are known to one skilled in the art. The results of this assay are expressed as the inhibitory constant, Ki.
Kallikrein determinations were made in 50 mM HEPES buffer at pH 7.4 containing 150 mM NaCl, 5 mM CaCl2, and 0.1% PEG 8000 (polyethylene glycol; Fisher Scientific). Determinations were made using purified Human plasma kallikrein at a final concentration of 0.5 nM (Enzyme Research Laboratories) and the synthetic substrate, Acetyl-K-P-R-AFC (Sigma # C6608) at a concentration of […].
Activity assays were performed by diluting a stock solution of substrate at least tenfold to a final concentration ≤0.2 Km into a solution containing enzyme or enzyme equilibrated with inhibitor. Times required to achieve equilibration between enzyme and inhibitor were determined in control experiments. The reactions were performed under linear progress curve conditions and fluorescence increase measured at 405 Ex/510 Em nm. Values were converted to percent inhibition of the control reaction (after subtracting 100% Inhibition value). IC50 was determined by inflection point from a four parameter logistic curve fit. Ki was calculated using the Cheng Prusoff equation, Ki=IC50/(1+([S]/Km)).

Chain of purified human Factor XIa (P03951 388-625): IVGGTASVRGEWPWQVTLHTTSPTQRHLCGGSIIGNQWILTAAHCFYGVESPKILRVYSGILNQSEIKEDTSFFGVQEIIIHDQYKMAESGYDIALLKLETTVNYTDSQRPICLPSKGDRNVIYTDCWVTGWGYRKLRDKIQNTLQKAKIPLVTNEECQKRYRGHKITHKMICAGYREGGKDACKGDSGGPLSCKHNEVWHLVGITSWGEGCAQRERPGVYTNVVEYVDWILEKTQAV
Chain of purified human Factor XIa (P03951 19-387 partner): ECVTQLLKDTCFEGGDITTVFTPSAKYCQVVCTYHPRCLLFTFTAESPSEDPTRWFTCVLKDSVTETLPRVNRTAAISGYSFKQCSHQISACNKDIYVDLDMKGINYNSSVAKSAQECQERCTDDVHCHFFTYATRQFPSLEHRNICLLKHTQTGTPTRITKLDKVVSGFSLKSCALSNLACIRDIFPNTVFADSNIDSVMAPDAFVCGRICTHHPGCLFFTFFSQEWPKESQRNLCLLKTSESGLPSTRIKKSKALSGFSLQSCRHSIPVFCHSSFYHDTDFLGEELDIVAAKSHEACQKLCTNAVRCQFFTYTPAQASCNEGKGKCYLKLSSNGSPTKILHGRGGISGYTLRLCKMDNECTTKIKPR
Chain of purified Human plasma kallikrein (P03952 391-638): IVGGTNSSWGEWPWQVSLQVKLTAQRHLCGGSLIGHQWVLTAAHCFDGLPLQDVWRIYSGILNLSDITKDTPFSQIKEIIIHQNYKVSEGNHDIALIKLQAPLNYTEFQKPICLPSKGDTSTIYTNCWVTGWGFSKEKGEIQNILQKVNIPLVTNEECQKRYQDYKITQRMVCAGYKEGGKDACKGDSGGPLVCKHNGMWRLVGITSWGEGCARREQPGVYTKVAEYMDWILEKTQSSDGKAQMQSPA
Chain of purified Human plasma kallikrein (P03952 20-390 partner): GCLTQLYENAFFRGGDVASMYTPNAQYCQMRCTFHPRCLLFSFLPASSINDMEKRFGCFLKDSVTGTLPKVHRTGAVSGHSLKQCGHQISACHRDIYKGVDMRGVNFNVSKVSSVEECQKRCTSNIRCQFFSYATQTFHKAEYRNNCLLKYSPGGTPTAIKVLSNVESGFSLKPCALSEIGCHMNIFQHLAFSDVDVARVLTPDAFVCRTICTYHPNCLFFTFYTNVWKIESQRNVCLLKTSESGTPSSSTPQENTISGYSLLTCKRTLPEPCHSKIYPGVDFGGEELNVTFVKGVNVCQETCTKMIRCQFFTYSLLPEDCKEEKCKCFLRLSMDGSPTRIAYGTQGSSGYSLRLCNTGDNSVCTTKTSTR

Row | SMILES | IC50 [1] [nM] | IC50 [2] [nM]
1 | O=C(O)c1ccc(NC(=O)C2(O)CC(F)c3cc(-c4cc(Cl)ccc4-n4cnnn4)c[n+]([O-])c32)cc1 (single isomer, unassigned) [Example 14, 4-[({3-[5-Chloro-2-(1H-tetrazol-1-yl)phenyl]-5-fluoro-7-hydroxy-1-oxido-6,7-dihydro-5H-cyclopenta[b]pyridin-7-yl}carbonyl)amino]benzoic acid] | 219 | 
2 | O=C(O)c1ccc(NC(=O)C2(O)CC(O)c3cc(-c4cc(Cl)ccc4-n4cnnn4)c[n+]([O-])c32)cc1 (single isomer, unassigned) [Example 11, 4-[({3-[5-Chloro-2-(1H-tetrazol-1-yl)phenyl]-5,7-dihydroxy-1-oxido-6,7-dihydro-5H-cyclopenta[b]pyridin-7-yl}carbonyl)amino]benzoic acid] | 104 | 
3 | COC(=O)Nc1ccc(C(=O)NC2CCc3cc(-c4cc(Cl)ccc4-n4cnnn4)c[n+]([O-])c32)cc1 (centres unmarked) [Example 20, 3-(5-Chloro-2-(H-tetrazol-1-yl)phenyl)-7-(4-((methoxycarbonyl)amino)benzamido)-6,7-dihydro-5H-cyclopenta[b]pyridine 1-oxide] | 894 | 
4 | O=C(O)c1ccc(NC(=O)C2CC(O)c3cc(-c4cc(Cl)ccc4-n4cnnn4)c[n+]([O-])c32)cc1 (racemic) [Example 6, 4-[({3-[5-chloro-2-(1H-tetrazol-1-yl)phenyl]-5-hydroxy-1-oxido-6,7-dihydro-5H-cyclopenta[b]pyridin-7-yl}carbonyl)amino]benzoic acid] | 10.5 | 700
5 | O=C(O)c1ccc(NC(=O)[C@H]2CCc3cc(-c4c(F)ccc(Cl)c4F)c[n+]([O-])c32)cc1 [Example 3, 4-({[(7S)-3-(3-chloro-2,6-difluorophenyl)-1-oxido-6,7-dihydro-5H-cyclopenta[b]pyridin-b7-yl]carbonyl}amino)benzoic acid] | 2920 | 
6 | O=C(O)c1ccc(NC(=O)C2(O)CCc3cc(-c4cc(Cl)ccc4-n4cnnn4)c[n+]([O-])c32)cc1 (centres unmarked) [Example 19, 4-[({3-[5-Chloro-2-(1H-tetrazol-1-yl)phenyl]-7-hydroxy-1-oxido-6,7-dihydro-5H-cyclopenta[b]pyridin-7-yl}carbonyl)amino]benzoic acid] | 6 | 1370
7 | O=C(O)c1ccc(NC(=O)C2CC(O)c3cc(-c4cc(Cl)ccc4-n4cnnn4)c[n+]([O-])c32)cc1 (single isomer, unassigned) [Example 5] | 3.6 | 504
8 | O=C(O)c1ccc(NC(=O)C2(O)CC(O)c3cc(-c4cc(Cl)ccc4-n4cnnn4)c[n+]([O-])c32)cc1 (single isomer, unassigned) [Example 10, 4-[({3-[5-Chloro-2-(1H-tetrazol-1-yl)phenyl]-5,7-dihydroxy-1-oxido-6,7-dihydro-5H-cyclopenta[b]pyridin-7-yl}carbonyl)amino]benzoic acid] | 2.7 | 530
9 | O=C(O)c1ccc(NC(=O)C2(O)CC(O)c3cc(-c4cc(Cl)ccc4-n4cnnn4)c[n+]([O-])c32)cc1 (centres unmarked) [Example 8, 4-[({3-[5-Chloro-2-(1H-tetrazol-1-yl)phenyl]-5,7-dihydroxy-1-oxido-6,7-dihydro-5H-cyclopenta[b]pyridin-7-yl}carbonyl)amino]benzoic acid] | 4.2 | 816
10 | O=C(O)c1ccc(NC(=O)C2(O)CC(O)c3cc(-c4cc(Cl)ccc4-n4cnnn4)c[n+]([O-])c32)cc1 (single isomer, unassigned) [Example 12, 4-[({3-[5-Chloro-2-(1H-tetrazol-1-yl)phenyl]-5,7-dihydroxy-1-oxido-6,7-dihydro-5H-cyclopenta[b]pyridin-7-yl}carbonyl)amino]benzoic acid] | 202 | 
11 | O=C(NC12CCC(C(=O)O)(CC1)CC2)C1CCc2cc(-c3cc(Cl)ccc3-n3cnnn3)c[n+]([O-])c21 (centres unmarked) [Example 2, 7-((4-carboxybicyclo[2.2.2]octan-1-yl)carbamoyl)-3-(5-chloro-2-(1H-tetrazol-1-yl)phenyl)-6,7-dihydro-5H-cyclopenta[b]pyridine=1-oxide] | 2000 | 
12 | O=C(O)c1ccc(NC(=O)[C@@H]2CCc3cc(-c4c(F)ccc(Cl)c4F)c[n+]([O-])c32)cc1 [Example 4, 4-({[(7R)-3-(3-chloro-2,6-difluorophenyl)-1-oxido-6,7-dihydro-5H-cyclopenta[b]pyridin-7-yl]carbonyl}amino)benzoic acid] | 2370 | 

Continued, in another order:

Row | IC50 [1] [nM] | SMILES | IC50 [2] [nM]
13 | 4440 | O=C(O)c1ccc(NC(=O)C2(F)CC(F)c3cc(-c4cc(Cl)ccc4-n4cnnn4)c[n+]([O-])c32)cc1 (single isomer, unassigned) [Example 17, 4-[({3-[5-Chloro-2-(1H-tetrazol-1-yl)phenyl]-5,7-difluoro-1-oxido-6,7-dihydro-5H-cyclopenta[b]pyridin-7-yl}carbonyl)amino]benzoic acid] | 
14 | 14.1 | O=C(O)c1ccc(NC(=O)C2(F)CC(F)c3cc(-c4cc(Cl)ccc4-n4cnnn4)c[n+]([O-])c32)cc1 (single isomer, unassigned) [Example 15, 4-[({3-[5-Chloro-2-(1H-tetrazol-1-yl)phenyl]-5,7-difluoro-1-oxido-6,7-dihydro-5H-cyclopenta[b]pyridin-7-yl}carbonyl)amino]benzoic acid] | 4920
15 | > 870 | O=C(O)c1ccc(NC(=O)C2(CC3CC3)CCc3cc(-c4cc(Cl)ccc4-n4cnnn4)c[n+]([O-])c32)cc1 (single isomer, unassigned) [Example 21, 7-((4-carboxyphenyl)carbamoyl)-3-(5-chloro-2-(1H-tetrazol-1-yl)phenyl)-7-(cyclopropylmethyl)-6,7-dihydro-5H-cyclopenta[b]pyridine 1-oxide] | 
16 | 3.8 | O=C(O)c1ccc(NC(=O)C2CCc3cc(-c4cc(Cl)ccc4-n4cnnn4)c[n+]([O-])c32)cc1 (centres unmarked) [Example 1, 4-[({3-[5-chloro-2-(1H-tetrazol-1-yl)phenyl]-1-oxido-6,7-dihydro-5H-cyclopenta[b]pyridin-7-yl}carbonyl)amino]benzoic acid] | 473
17 | 85.6 | O=C(O)c1ccc(NC(=O)C2(F)CC(F)c3cc(-c4cc(Cl)ccc4-n4cnnn4)c[n+]([O-])c32)cc1 (single isomer, unassigned) [Example 16, 4-[({3-[5-Chloro-2-(1H-tetrazol-1-yl)phenyl]-5,7-difluoro-1-oxido-6,7-dihydro-5H-cyclopenta[b]pyridin-7-yl}carbonyl)amino]benzoic acid] | 
18 | 178 | O=C(O)c1ccc(NC(=O)C2(CC3CC3)CCc3cc(-c4cc(Cl)ccc4-n4cnnn4)c[n+]([O-])c32)cc1 (single isomer, unassigned) [Example 22, 7-((4-carboxyphenyl)carbamoyl)-3-(5-chloro-2-(1H-tetrazol-1-yl)phenyl)-7-(cyclopropylmethyl)-6,7-dihydro-5H-cyclopenta[b]pyridine 1-oxide] | 
19 | 9450 | O=C(O)c1ccc(NC(=O)C2(F)CC(F)c3cc(-c4cc(Cl)ccc4-n4cnnn4)c[n+]([O-])c32)cc1 (single isomer, unassigned) [Example 18, 4-[({3-[5-Chloro-2-(1H-tetrazol-1-yl)phenyl]-5,7-difluoro-1-oxido-6,7-dihydro-5H-cyclopenta[b]pyridin-7-yl}carbonyl)amino]benzoic acid] | 
